We go through 11 compounds from ChEMBL document CHEMBL5465560, “Selectivity Literature for EUbOPEN Chemogenomic Library” (2024).

The target of experiment [1] is Death-associated protein kinase 2 (Homo sapiens) (UniProt Q9UIK4). Nature of the experiment: Selectivity interaction (Upstate Kinase Profiler service (Millipore)) EUB0000056c DAPK2. The following applies: at 1 µM.
The target of experiment [2] is Cyclin-dependent kinase 3/Cyclin-C (Homo sapiens) (UniProt Q00526+P24863). As to the kind of experiment: (§1) Selectivity interaction (ProQinase) EUB0000171b CDK3. The class given is protein-complex assay.
Sequence of Cyclin-dependent kinase 3/Cyclin-C (Homo sapiens) (P24863 whole entry, looked up): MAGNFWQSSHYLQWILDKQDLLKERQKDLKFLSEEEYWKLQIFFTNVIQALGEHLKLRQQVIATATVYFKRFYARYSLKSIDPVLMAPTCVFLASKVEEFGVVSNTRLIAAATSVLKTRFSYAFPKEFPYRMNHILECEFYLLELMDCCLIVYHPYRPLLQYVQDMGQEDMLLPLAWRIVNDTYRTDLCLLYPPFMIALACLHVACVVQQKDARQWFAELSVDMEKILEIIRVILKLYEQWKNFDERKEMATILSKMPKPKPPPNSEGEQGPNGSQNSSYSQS
Sequence of Cyclin-dependent kinase 3/Cyclin-C (Homo sapiens) (Q00526 whole entry, looked up): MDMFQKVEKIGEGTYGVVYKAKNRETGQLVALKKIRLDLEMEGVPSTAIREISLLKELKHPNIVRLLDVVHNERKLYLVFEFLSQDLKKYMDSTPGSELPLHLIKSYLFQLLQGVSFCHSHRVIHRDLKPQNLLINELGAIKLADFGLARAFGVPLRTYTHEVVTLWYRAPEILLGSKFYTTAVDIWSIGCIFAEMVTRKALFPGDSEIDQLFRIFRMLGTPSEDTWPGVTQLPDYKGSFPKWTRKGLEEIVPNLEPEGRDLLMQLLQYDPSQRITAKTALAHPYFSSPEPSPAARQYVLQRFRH
Experiment [3] concerns the target CDK3/Cyclin E (Homo sapiens) (UniProt P24864+Q00526). Described as §1. The experiment is classed as protein-complex assay.
The target in experiment [4] is T1, Ephrin type-A receptor 1 (Homo sapiens) (UniProt P21709).
T1 sequence (whole entry): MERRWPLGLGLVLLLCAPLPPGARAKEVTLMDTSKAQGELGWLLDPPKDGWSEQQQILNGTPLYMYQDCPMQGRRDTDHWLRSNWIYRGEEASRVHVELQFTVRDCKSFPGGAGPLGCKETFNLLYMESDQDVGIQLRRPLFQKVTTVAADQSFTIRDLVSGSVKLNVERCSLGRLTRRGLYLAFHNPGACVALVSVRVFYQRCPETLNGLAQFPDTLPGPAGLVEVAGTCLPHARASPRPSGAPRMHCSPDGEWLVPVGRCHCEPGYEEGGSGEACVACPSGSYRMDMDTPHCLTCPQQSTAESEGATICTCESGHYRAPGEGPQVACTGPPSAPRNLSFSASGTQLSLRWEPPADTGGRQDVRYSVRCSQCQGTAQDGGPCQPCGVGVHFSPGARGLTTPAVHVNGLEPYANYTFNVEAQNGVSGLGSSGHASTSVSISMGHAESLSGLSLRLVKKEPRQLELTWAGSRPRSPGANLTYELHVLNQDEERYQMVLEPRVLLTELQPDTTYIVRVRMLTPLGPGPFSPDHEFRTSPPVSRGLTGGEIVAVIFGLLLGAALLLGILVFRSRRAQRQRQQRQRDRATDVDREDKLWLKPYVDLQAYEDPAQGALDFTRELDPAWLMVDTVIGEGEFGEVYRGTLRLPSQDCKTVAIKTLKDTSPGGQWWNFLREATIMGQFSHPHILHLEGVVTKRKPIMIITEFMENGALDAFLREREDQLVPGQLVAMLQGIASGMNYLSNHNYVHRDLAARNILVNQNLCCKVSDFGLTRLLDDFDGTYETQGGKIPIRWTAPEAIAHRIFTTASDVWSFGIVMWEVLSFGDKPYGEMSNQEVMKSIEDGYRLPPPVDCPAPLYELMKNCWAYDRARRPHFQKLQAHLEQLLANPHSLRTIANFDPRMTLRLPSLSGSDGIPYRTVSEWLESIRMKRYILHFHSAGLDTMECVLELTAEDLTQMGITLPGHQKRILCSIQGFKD
As to the kind of experiment: Selectivity interaction (Ambit KINOMEscan and KiNATiv profiling in Jurkat cells) EUB0000090b EPHA1. The experiment is classed as cell-based. The following applies: at 1 µM.

Experiment [5] deals with T2, Mitogen-activated protein kinase 12 (Homo sapiens) (UniProt P53778).
T2 sequence (whole entry): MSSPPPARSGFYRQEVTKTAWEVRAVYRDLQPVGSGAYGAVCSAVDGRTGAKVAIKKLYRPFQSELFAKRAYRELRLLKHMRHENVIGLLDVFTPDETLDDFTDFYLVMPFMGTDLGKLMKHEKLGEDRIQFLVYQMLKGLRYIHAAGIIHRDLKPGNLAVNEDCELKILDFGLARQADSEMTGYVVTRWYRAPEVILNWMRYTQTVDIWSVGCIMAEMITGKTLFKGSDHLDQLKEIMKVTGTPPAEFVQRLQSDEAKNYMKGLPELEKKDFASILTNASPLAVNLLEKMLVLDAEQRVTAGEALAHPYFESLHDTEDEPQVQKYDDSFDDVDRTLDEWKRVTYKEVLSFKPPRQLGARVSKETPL
As to the kind of experiment: Selectivity interaction (Millipore kinase profiler) EUB0000124b MAPK12. Particulars: at 10 µM.

Experiment [6] has as its target Serine/threonine-protein kinase pim-1 (Homo sapiens, UniProt P11309). Nature of the experiment: Selectivity interaction (KinomeScan (DiscoverX)) EUB0000666a PIM1. The following applies: at 10 µM.
The target in experiment [7] is Hepatocyte growth factor-like protein (Homo sapiens) (UniProt P26927). Nature of the experiment: Selectivity interaction (KinomeScan (DiscoverX)) EUB0000666a MST1. Particulars: at 10 µM.
Experiment [8] deals with Tyrosine-protein kinase Fes/Fps (Homo sapiens) (UniProt P07332). Nature of the experiment: Selectivity interaction (Kinase panel (Z-LYTE Assay)) EUB0001632a FES. The following applies: at 10 µM.
Experiment [9] concerns the target Cell division cycle 7-related protein kinase (Homo sapiens, UniProt O00311). Nature of the experiment: Selectivity interaction (LanthaScreen Eu Kinase Binding Assay) EUB0001632a CDC7. Particulars: at 10 µM. For orientation: In TR-FRET formats the signal depends on donor and acceptor labels being close together.
In experiment [10] the target is Interleukin-1 receptor-associated kinase 1 (Homo sapiens) (UniProt P51617). Nature of the experiment: Selectivity interaction (Adapta Assay) EUB0001632a IRAK1. The following applies: at 10 µM.
Sequence of Interleukin-1 receptor-associated kinase 1 (Homo sapiens) (P51617 whole entry, looked up): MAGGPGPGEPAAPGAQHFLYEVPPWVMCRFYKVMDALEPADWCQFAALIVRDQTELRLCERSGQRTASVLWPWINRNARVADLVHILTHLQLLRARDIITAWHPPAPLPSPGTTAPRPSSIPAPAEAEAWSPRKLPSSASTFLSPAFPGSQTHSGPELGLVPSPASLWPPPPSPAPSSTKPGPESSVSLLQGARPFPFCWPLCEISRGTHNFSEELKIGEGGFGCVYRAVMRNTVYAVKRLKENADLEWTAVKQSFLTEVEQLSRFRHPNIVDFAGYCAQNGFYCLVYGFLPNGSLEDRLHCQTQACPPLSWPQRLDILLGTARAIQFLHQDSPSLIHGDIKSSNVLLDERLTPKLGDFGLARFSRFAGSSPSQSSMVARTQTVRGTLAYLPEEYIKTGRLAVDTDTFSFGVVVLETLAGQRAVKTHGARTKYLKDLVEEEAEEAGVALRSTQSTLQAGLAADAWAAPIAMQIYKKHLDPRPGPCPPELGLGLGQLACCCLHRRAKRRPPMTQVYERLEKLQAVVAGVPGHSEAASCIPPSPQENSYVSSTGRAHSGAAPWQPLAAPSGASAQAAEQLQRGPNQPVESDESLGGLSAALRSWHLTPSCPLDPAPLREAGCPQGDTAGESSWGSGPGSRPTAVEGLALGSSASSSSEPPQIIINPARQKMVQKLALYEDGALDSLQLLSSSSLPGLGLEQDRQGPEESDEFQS
Experiment [11] deals with G protein-coupled receptor kinase 4 (Homo sapiens) (UniProt P32298). Nature of the experiment: Selectivity interaction (SelectScreen profiling (Invitrogen)) EUB0000607a GRK4. The following applies: at 2 µM.
Sequence of G protein-coupled receptor kinase 4 (Homo sapiens) (P32298 whole entry, looked up): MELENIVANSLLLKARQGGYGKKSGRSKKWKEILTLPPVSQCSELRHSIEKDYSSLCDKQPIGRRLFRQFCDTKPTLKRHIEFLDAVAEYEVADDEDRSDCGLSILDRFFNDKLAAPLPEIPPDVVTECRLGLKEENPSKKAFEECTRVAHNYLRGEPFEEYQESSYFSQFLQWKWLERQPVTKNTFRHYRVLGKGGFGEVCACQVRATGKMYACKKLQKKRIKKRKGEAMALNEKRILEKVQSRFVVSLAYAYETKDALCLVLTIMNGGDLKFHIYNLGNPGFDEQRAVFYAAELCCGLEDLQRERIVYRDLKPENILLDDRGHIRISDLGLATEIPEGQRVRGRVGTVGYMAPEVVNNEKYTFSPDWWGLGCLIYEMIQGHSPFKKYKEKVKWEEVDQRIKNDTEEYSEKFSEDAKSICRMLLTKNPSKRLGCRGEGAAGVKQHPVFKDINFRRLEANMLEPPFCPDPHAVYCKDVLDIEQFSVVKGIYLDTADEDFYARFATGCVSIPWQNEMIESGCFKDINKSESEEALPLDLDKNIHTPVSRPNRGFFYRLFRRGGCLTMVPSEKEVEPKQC
In experiment [12] the target is Interferon-induced, double-stranded RNA-activated protein kinase (Homo sapiens) (UniProt P19525). Nature of the experiment: Selectivity interaction (ActivX KiNativ screen (kinase selectivity in THP-1 cell lysates)) EUB0000639a EIF2AK2. The experiment is classed as subcellular. Particulars: lysate, at 0.2 µM.
Experiment [13] deals with Serine/threonine-protein kinase PAK 2 (Homo sapiens) (UniProt Q13177). Nature of the experiment: Selectivity interaction (KinomeScan (DiscoverX)) EUB0000229b PAK2. Particulars: at 10 µM.
For experiment [14], the target named is Angiopoietin-1 receptor (Homo sapiens) (UniProt Q02763). As to the kind of experiment: Selectivity interaction (KinomeScan (DiscoverX)) EUB0000595a TEK. The following applies: at 10 µM.
Sequence of Angiopoietin-1 receptor (Homo sapiens) (Q02763 whole entry): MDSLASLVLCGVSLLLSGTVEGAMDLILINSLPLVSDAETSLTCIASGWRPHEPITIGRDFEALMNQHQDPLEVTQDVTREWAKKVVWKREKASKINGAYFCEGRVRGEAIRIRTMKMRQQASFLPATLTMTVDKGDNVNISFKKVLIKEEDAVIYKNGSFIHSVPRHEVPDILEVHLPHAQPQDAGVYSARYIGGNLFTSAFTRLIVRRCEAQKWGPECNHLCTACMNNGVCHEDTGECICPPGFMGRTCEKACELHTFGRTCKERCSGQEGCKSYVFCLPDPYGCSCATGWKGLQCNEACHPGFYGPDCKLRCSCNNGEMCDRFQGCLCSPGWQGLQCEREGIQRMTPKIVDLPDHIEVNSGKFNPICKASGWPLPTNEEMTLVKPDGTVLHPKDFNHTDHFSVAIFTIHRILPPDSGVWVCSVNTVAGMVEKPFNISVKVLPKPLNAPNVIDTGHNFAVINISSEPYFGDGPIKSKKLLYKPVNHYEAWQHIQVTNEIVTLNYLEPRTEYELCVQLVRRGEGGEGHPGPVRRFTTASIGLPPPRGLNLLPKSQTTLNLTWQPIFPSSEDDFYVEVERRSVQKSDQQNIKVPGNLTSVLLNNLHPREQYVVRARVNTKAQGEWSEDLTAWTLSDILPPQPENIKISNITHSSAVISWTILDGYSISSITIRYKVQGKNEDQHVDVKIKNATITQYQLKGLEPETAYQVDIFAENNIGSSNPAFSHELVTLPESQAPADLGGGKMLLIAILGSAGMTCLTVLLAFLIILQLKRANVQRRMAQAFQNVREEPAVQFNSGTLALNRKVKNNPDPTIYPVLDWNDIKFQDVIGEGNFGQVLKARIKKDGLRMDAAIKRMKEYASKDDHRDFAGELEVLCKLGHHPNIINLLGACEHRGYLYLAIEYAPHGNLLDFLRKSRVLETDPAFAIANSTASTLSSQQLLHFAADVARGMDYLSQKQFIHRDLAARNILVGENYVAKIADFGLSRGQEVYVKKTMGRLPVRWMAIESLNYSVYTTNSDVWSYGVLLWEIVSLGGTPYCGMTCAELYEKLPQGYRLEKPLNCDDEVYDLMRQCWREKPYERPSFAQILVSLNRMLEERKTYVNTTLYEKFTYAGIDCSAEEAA
Experiment [15] has as its target T3, Protein kinase C iota type (Homo sapiens) (UniProt P41743).
T3 sequence (whole entry): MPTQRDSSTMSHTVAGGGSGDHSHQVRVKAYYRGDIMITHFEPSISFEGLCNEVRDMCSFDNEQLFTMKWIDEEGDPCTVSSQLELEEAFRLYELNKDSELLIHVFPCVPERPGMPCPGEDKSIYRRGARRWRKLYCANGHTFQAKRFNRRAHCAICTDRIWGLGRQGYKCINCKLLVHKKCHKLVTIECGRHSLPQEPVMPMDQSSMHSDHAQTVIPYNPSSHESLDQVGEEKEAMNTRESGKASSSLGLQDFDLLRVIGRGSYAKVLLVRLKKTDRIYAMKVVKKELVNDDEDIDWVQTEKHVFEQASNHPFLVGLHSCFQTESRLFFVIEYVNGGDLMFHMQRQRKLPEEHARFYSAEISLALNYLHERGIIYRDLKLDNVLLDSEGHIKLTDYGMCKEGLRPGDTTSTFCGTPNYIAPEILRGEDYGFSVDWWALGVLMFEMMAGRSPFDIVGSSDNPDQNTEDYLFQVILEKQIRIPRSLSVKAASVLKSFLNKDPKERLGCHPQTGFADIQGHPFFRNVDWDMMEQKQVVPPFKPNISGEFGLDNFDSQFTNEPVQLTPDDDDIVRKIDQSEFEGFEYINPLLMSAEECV
As to the kind of experiment: Selectivity interaction (KinomeScan (DiscoverX)) EUB0001619a PRKCI. Particulars: at 1 µM.

Sequence of CDK3/Cyclin E (Homo sapiens) (P24864 whole entry, looked up): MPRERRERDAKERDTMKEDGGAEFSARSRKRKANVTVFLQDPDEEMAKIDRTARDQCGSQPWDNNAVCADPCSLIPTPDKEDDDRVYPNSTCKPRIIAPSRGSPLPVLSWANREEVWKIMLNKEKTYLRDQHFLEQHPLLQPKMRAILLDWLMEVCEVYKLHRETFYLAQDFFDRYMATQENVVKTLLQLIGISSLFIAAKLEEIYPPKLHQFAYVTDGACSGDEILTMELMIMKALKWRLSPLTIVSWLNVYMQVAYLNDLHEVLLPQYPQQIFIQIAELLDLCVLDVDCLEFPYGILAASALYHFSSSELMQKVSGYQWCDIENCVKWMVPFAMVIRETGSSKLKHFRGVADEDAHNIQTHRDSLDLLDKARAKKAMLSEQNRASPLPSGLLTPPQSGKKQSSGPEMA
Sequence of CDK3/Cyclin E (Homo sapiens) (Q00526 whole entry, looked up): as the sequence (Q00526 whole entry, looked up) above
Sequence of Death-associated protein kinase 2 (Homo sapiens) (Q9UIK4 whole entry, looked up): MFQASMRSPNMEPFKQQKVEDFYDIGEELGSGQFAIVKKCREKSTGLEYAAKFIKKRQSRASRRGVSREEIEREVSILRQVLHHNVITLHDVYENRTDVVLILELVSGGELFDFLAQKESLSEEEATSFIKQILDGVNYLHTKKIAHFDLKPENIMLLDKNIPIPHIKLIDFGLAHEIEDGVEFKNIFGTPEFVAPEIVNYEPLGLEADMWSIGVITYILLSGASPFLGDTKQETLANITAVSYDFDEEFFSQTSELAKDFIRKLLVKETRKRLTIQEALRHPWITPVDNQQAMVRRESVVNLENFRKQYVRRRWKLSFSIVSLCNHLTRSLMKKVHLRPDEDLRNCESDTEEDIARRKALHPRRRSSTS
Sequence of Cell division cycle 7-related protein kinase (O00311 whole entry, looked up): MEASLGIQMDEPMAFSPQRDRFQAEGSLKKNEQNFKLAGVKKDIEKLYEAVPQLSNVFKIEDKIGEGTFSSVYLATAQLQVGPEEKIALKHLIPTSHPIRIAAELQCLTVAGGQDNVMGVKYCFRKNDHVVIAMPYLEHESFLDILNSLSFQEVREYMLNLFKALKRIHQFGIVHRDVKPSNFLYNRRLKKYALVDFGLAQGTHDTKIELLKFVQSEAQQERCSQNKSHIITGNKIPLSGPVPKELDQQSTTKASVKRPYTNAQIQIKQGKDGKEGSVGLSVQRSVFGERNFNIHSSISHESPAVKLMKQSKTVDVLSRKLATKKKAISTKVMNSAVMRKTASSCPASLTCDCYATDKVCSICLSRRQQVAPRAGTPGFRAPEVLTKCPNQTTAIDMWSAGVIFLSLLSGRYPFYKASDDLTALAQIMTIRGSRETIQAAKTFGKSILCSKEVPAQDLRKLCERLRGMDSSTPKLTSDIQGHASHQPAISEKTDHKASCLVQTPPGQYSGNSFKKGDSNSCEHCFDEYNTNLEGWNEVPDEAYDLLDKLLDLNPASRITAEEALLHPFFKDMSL
Sequence of Serine/threonine-protein kinase pim-1 (P11309 whole entry, looked up): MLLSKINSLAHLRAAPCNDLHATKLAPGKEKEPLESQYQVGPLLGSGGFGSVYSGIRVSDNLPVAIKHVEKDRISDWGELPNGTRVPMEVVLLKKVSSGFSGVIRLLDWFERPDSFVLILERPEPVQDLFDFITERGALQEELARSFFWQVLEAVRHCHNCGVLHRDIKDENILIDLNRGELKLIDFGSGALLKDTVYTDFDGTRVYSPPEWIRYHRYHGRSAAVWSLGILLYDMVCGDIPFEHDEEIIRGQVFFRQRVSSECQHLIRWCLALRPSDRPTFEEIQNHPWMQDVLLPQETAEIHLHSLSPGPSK

As for `Cc1ccc(-c2ccc3c(ccc4sc5c(c43)NC[C@@H](C)NC5=O)n2)cn1`, in experiment [1], the % of inhibition worked out at 30%.
With `C=CC(=O)Nc1cccc(C(=O)Nc2ccc(Nc3cc(-c4[nH]c(SC)nc4C)ccn3)cc2)c1`, the % of control turned out to be 91% in [2] (at 1 µM), 74% in experiment [2] (at 5 µM), 98% in experiment [3] (at 1 µM) and 79% in [3] (at 5 µM).
`CN(C)C/C=C/C(=O)Nc1ccc(C(=O)N2CCCC(Nc3ncc(Cl)c(-c4c[nH]c5ccccc45)n3)C2)cc1` (configuration not stated) had a % of control in experiment [4] of 73%.
Compound `CC(=O)Nc1cccc(-n2c(=O)n(C3CC3)c(=O)c3c(Nc4ccc(I)cc4F)n(C)c(=O)c(C)c32)c1` yielded a % of control in experiment [5] of 97%.
Take `O=C(NOC[C@H](O)CO)c1ccc(F)c(F)c1Nc1ccc(I)cc1F`: the % of control in [6] and in experiment [7] was 100% in each case.
`Cn1cc(-n2cnc3c(NCc4nc5cc(Cl)c(Cl)cc5[nH]4)nc(N4CCOCC4)nc32)cn1` displayed a % of control in experiment [8] of 3.47%. The values for the % of inhibition in [9] and in [10] were -5.05% and -6.48%, respectively.
On to `CNC(=O)Nc1ccc(-c2nc(N3CC4CCC(C3)O4)c3cnn(C4CCC5(CC4)OCCO5)c3n2)cc1`, for which, in experiment [11], the % of inhibition is -4%.
In the case of `CC[C@@H]1[C@H](F)C(=O)N[C@@H]1COc1nccc2cc(C(N)=O)c(OC)cc12` [ZIMLOVISERTIB], the % of inhibition in experiment [12] was -4.9%.
On to `COc1cc(N(C)c2ccnc3ccc(C(F)(F)F)cc23)cc(OC)c1OC`, for which, in [13], the % binding was 77%.
In turn, `COCC(=O)NC/C=C/c1ccc2ncnc(Nc3ccc(Oc4ccc(C)nc4)c(C)c3)c2c1` [CP-724714] displayed a % of control in experiment [14] of 100%.
With `N#Cc1cccc(-c2c[nH]c3ncnc(N4CCOCC4)c23)c1`, the % of control in [15] turned out to be 100%.
